9 compounds from PubChem BioAssay (NCI) can be followed below.

Holding throughout (experiment): NCI anticancer screen, dose series, 48 h
Experiment [1] has as its system 786-0 renal.
Experiment [2] relates to A498 renal.
The subject of experiment [3] is DU-145 prostate.
For experiment [4], the system named is HT29 colon.
Experiment [5] concerns IGROV1 ovarian.
The subject of experiment [6] is KM12 colon.
Experiment [7] deals with MDA-MB-435.
Experiment [8] has as its system MOLT-4 leukemia.
Experiment [9] deals with NCI/ADR-RES ovarian.
The subject of experiment [10] is OVCAR-3 ovarian.
Experiment [11] relates to RPMI-8226 leukemia.
Experiment [12] has as its system RXF 393 renal.
For experiment [13], the system named is SK-MEL-28 melanoma.
Experiment [14] concerns SK-MEL-5 melanoma.
Experiment [15] relates to SNB-19 CNS.
For experiment [16], the system named is UACC-257 melanoma.
The subject of experiment [17] is HL-60(TB) leukemia.

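All cell lines were grown in 96-well plates and treated with compound for 48 hours. TGI: total growth inhibition.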

Turning to `O=C1N[C@H]2C(=O)c3c(Br)sc(Br)c3[C@H]2O1`, the TGI is 24.1 µM in experiment [1]; 33.2 µM in experiment [2]; 28.9 µM in experiment [3]; 6.59 µM in experiment [4]; 25.3 µM in experiment [5]; more than 55.5 µM in [6]. Also, the TGI in experiment [7] is 26.7 µM; in experiment [8], 5.25 µM; in experiment [9], 39 µM; in experiment [10], 17 µM; in experiment [11], more than 45 µM; in experiment [12], 10.4 µM. The TGI in [13] is 10.7 µM; in experiment [14] it was 27.7 µM; in [15], 30.7 µM; in experiment [16], 21.7 µM.

Regarding `Brc1ccc(-c2[nH]c3ccccc3c2/C=N\Nc2ccc(-c3nc4ccccc4[nH]3)cc2)cc1`, the TGI was more than 42 µM in experiment [1]; more than 31.8 µM in [3]; more than 100 µM in [17]; more than 88.3 µM in [5]; more than 100 µM in [6]; 22.1 µM in [8]. The TGI was more than 100 µM in [9]; more than 100 µM in experiment [10]; 25.4 µM in experiment [11]; more than 43.6 µM in experiment [12]; 1.41 µM in experiment [14]; more than 100 µM in [15]. This compound showed a TGI in [16] of more than 100 µM.

For the compound `CCOC(=O)c1c(NC(=S)Nc2ccccc2)sc2c1CCN(C)C2`, the TGI in experiment [1], in experiment [2], in experiment [3], in experiment [17], in [4] and in experiment [5] was more than 100 µM throughout. The TGI in experiment [6], in experiment [8], in experiment [9], in experiment [10], in experiment [11] and in experiment [12] was more than 100 µM in each case. For the same compound, the TGI in experiment [14], in experiment [15] and in [16] was more than 100 µM throughout.

On to `COc1cccc([C@@H]2C/C(=N\NC(=O)C(=O)N[C@@H](C)c3ccccc3)c3ccccc3N2)c1`, for which the TGI in experiment [1] was more than 100 µM; in experiment [2] it was more than 100 µM; in [3] it was more than 100 µM; in [6], more than 100 µM; in experiment [7], 48.8 µM; in [8], 34.8 µM. The TGI in experiment [9], in [10], in [11], in experiment [12], in [13] and in experiment [14] was more than 100 µM in each case. Besides, the TGI in experiment [15] and in [16] was more than 100 µM each time.

On to `COc1cc(C2c3cc4c(cc3OC(NNC(N)=S)C2C)OCO4)cc(OC)c1OC` (stereo not given), for which the TGI is more than 100 µM in [1]; 34.7 µM in [2]; more than 100 µM in experiment [3]; 0.631 µM in experiment [17]; 2.6 µM in [4]; more than 100 µM in [5]. In addition, the TGI in [6] is more than 35.6 µM; in experiment [9], more than 100 µM; in [10], more than 57.6 µM; in experiment [11] it was 0.847 µM; in experiment [13], more than 100 µM; in [15], more than 100 µM. Further, the TGI in [16] was more than 92.7 µM.

Take `CCOC(=O)C(=[N+]=[N-])C(=O)CSC#N`: the TGI in experiment [1], in [2], in [3], in [17], in [4] and in experiment [5] was more than 100 µM throughout. For the same compound, the TGI in experiment [6], in experiment [7], in [8], in experiment [9], in experiment [12] and in experiment [13] was more than 100 µM each time. For the same compound, the TGI in experiment [14], in experiment [15] and in experiment [16] was more than 100 µM throughout.

`COc1cc(/C=C2\CCC(C)C3=C2N=c2s/c(=C/c4ccc(Cl)cc4)c(=O)n2C3c2cc(OC)c(OC)c(OC)c2)cc(OC)c1OC` (stereo not given): the TGI in experiment [1], in experiment [2], in experiment [3], in experiment [17], in [4] and in experiment [5] was more than 100 µM each time. Besides, the TGI in experiment [6], in [7], in experiment [8], in [11], in experiment [12] and in [13] was more than 100 µM in each case. Further, the TGI in [14], in experiment [15] and in [16] was more than 100 µM throughout.

With `Nc1nc(Cl)c(N)c(NCC2(CO)CCC(OCc3ccccc3)C2)n1` (stereo not given), the TGI is more than 100 µM in experiment [1]; 81.5 µM in experiment [2]; more than 100 µM in [3]; more than 100 µM in experiment [4]; more than 100 µM in experiment [5]; more than 100 µM in [6]. Further, the TGI in experiment [7], in [8], in [9], in [10], in experiment [12] and in [13] was more than 100 µM throughout. The TGI in experiment [14] and in experiment [15] was more than 100 µM each time.

`CC(=O)NC1=NC(=O)/C(=C/c2ccccc2Cl)N1C`: the TGI in experiment [1], in experiment [3], in experiment [17], in experiment [4], in experiment [5] and in experiment [6] was more than 100 µM throughout. Besides, the TGI in experiment [7], in experiment [8], in experiment [9], in experiment [10], in [12] and in [13] was more than 100 µM each time. Further, the TGI in experiment [14], in experiment [15] and in experiment [16] was more than 100 µM in each case.
